Measured values from patent US10738093B2, “Discovery of cationic nonribosomal peptides as Gram-negative antibiotics through global genome mining” (The Hong Kong University of Science and Technology, priority 2018, dated 2020).
Values after ≈ are worked out from the molar mass of the structure shown. Positions of bridges follow the written chain, without caps; N, C: chain ends. Non-standard residues stand in square brackets, D forms with d. Residues, ends and D or L forms follow the SMILES beside them. ξ: configuration not given here. *: point of attachment. Hexanoyl(4ξ-Me) = CCC(C)CCC(=O)*; dOrn = NCCC[C@@H](N)C(=O)O; Orn = NCCC[C@H](N)C(=O)O

Experiments:
[1] = test system: Escherichia coli ATCC 25922; assay: microbe, parasite or virus in culture; type: cell-based; conditions: ATCC 25922
Procedure: (§1) Minimum inhibitory concentration (MIC) was determined by broth microdilution according to CLSI guidelines. The test medium for most species was Mueller-Hinton broth (MHB). Bacteria were grown overnight to early stationary phase and adjusted in MHB to 5.0×10^5 colony-forming units per mL (c.f.u./mL) in the wells of 96-well microtiter plates, mixed with varying concentrations of test compounds and incubated at 37° C. for 24 h. […] MHBs containing 10% fetal bovine serum (Gibco), 21 mM MgCl, or 1.0 mg/ml LPS (lipopolysaccharides from Escherichia coli O55:B5, Sigma-Aldrich) were used to test their inhibitory effects.

[2] = test system: Colistin-resistant E. coli (E. coli ATCC 25922 carrying mcr-1); type: cell-based, Escherichia coli
Procedure: as §1

E. coli Top10 [3] = type: cell-based, Escherichia coli; conditions: Top10
Procedure: as §1

[4] = test system: K. pneumoniae NRRL-B-3521; type: cell-based, Klebsiella pneumoniae; conditions: NRRL-B-3521
Procedure: as §1

[5] = test system: Saccharomyces cerevisiae VL-48; assay: MIC, Saccharomyces cerevisiae; type: cell-based
Procedure: as §1

E. coli Top10 [6] = assay: Time-kill assay; type: cell-based, Escherichia coli
Procedure: An overnight culture of E. coli Top10 or Pseudomonas aeruginosa PAO1 cells was diluted 1:10,000 in MHB and incubated at 37° C. with agitation at 180 rpm for 2 h (early exponential). The bacteria were then challenged with antibiotics at 10×MIC, brevicidine (20 μg/ml), laterocidine (20 μg/ml) or polymyxin B (10 μg/ml) at room temperature without shaking. An untreated sample of cells was used as a negative control. At intervals, 10 μL aliquots were removed, centrifuged at 10,000 g for 1 min and resuspended in 1.0 mL of sterile PBS. Tenfold-serially-diluted suspensions were plated on MHB agar plates and incubated at 37° C. overnight. Colonies were counted and the number of c.fu. per mL was calculated. For analysis of lysis, 300 μL of culture (OD600=1.0) were treated with 10×MIC of antibiotics for 24 h. Experiments were performed in triplicate.

E. coli Top10 [7] = assay: Bacterial growth kinetics; type: cell-based, Escherichia coli; conditions: E. coli cells exposed to compound
Procedure: A fresh single colony of E. coli Top10 was inoculated into MHB (5 mL) and grown with shaking at 225 rpm overnight. The bacteria were diluted to 1×10^5 c.f.u./mL in fresh MHB, grown […] to early log-phase (OD=0.15) and treated with the antibiotics of interest in the wells of a 96-well plate. Final antibiotic concentrations varied from 1×MIC to 8×MIC. The plate was then incubated at 30° C. overnight, with OD 600 measurements taken every 30 seconds.

[8] = test system: Escherichia coli ATCC 25922; assay: Resistance acquisition during serial passaging; type: cell-based; conditions: serial passaging at subinhibitory concentrations over 30 days
Procedure: Escherichia coli ATCC 25922 was inoculated into MHB overnight at 37° C. with continuous shaking. Cells were diluted 10,000 times in MHB to about 1×10^6 c.f.u./mL. […] Plates with bacteria were incubated at 37° C. without shaking. […] This process was repeated for 30 d, and the final MIC was confirmed by the same antibacterial assay described above. The experiment was performed in quadruplicate, and on each day, the sample that developed the highest resistance was measured to plot the curve.

[9] = LPS binding by isothermal titration calorimetry; design: species or system Escherichia coli; conditions: ITC
Procedure: Microcalorimetric experiments of peptide binding to LPS were performed on an MCS isothermal titration calorimeter (ITC) (Microcal, Northampton, Mass.) at 37° C. LPS was prepared as a 50 μM aqueous suspension in 20 mM HEPES (pH 7.0) buffer by suspension, sonication and temperature cycling between 5° C. and 70° C. This suspension was stored at 4° C. overnight prior to use. 100 μM peptide solutions (brevicidine and polymyxin B) were prepared in the same buffer and all solutions were degassed prior to use by stirring under vacuum for 5 min at 37° C. After thermal equilibration, 5 μL aliquots of the peptide solution were added every 3 min into the lipid-containing cell at 37° C. and stirred constantly. The change in heat during the titration steps was registered in real time and raw data were processed using the Origin® 7 software provided with the instrument. In control experiments, the corresponding peptide solution (or LPS solution) was injected into the buffer without LPS (or without peptide).

E. coli ATCC 25922 = assay: Atomic force microscopy of treated E. coli; type: cell-based, Escherichia coli; conditions: E. coli ATCC25922, 10×MIC
Procedure: (§2) The samples were then centrifuged at 8000 g for 10 min at 4° C., and the pellet was washed twice in 100 lpL of apyrogenic water. The bacteria resuspended in 50 μL of apyrogenic water were applied to mica disks and dried overnight at 28° C. before imaging. Atomic force micrographs were recorded on a Veeco Mulitmode AFM with NanoScope III controller operating in contact mode. The data were analyzed with NanoScope Analysis software v.1.40 (Veeco, USA). Scans were acquired at 25° C. at the rates of 1.0 Hz and 256 samples per line resolution. Downstream image processing and analysis were performed using NanoScope software (Bruker). Height images were flattened to compensate for cell curvature, and topographical sections were used to generate two-dimensional reconstructions of surface texture.

P. aeruginosa PAO1 = assay: Atomic force microscopy of treated P. aeruginosa; type: cell-based, Pseudomonas aeruginosa
Procedure: as §2

In the case of `CCC(C)CCC(=O)N[C@H](CC(N)=O)C(=O)N[C@H](Cc1ccc(O)cc1)C(=O)N[C@H](Cc1c[nH]c2ccccc12)C(=O)N[C@H](CCCN)C(=O)N[C@@H](CCCN)C(=O)NCC(=O)N[C@H](CCCN)C(=O)N[C@@H](Cc1c[nH]c2ccccc12)C(=O)N[C@@H]1C(=O)N[C@@H]([C@@H](C)CC)C(=O)NCC(=O)N[C@H](CO)C(=O)O[C@@H]1C` (stereo partly drawn) [Compound 1, 4-Methyl-Hexanoyl-D-Asn-D-Tyr-D-Trp-D-Orn-Orn-Gly-D-Orn-Trp-Thr-Ile-Gly-Ser (cyclized via lactone formation between Thr and the C-terminus)] ({Hexanoyl(4ξ-Me)}-[dN][dY][dW][dOrn][Orn]G[dOrn]WTIG[dS]; ester 9-C), the MIC [1] is reported as 2 µg/mL (≈ 1.32 µM), the “MIC Ec” value [1] is reported as 2 µg/mL (≈ 1.32 µM) and the MIC [2] is reported as 2 µg/mL (≈ 1.32 µM). The MIC (E. coli Top10 [3]) was 2 µg/mL (≈ 1.32 µM), the MIC [4] was 4 µg/mL (≈ 2.63 µM) and the MIC ([5]; Saccharomyces cerevisiae) was >64 µg/mL. For the same molecule, the “MIC Sc” value ([5]; Table 2, Saccharomyces cerevisiae VL-48) was “ND (ND >64 μg/ml)”, the “time of exposure to significant reduction of viable cells” value (E. coli Top10 [6]; 10 times the MIC) was 30 min and the “time of exposure to slightly reduced cell viability” value (E. coli Top10 [6]; 10 times the MIC) was 15 min. For the same molecule, the “bactericidal against E. coli” value (E. coli Top10 [6]; growth kinetics, time-kill assay and lysis assay) was “bactericidal”, the “time of growth at a reduced rate before steady decrease in cell count” value (E. coli Top10 [7]) was 30 min and the development of resistance [8] was “development of resistance was not observed”. For the same molecule, the Kd ([9]; 37° C., read-out: dissociation constant Kd for LPS) was 6.5 µM, the “binding to LPS” value ([9]; FIGS. 18a-18b) was “strong binding to LPS” and the “cell morphology by AFM” value (E. coli ATCC 25922) was “lost their regular rod-like shape and became lumpy and rugged”. For the same molecule, the “cell morphology by AFM” value (P. aeruginosa PAO1) was “lost their regular rod-like shape and became lumpy and rugged”.
